The record followed here is US20050090522A1 (priority 2001, published 2005).

One assay concerns HIV-1. Nature of the assay: HIV-1 single-round infectious luciferase reporter virus (pseudotype) assay in HeLa CD4 CCR5 cells. The class given is cell-based. To be noted: Human immunodeficiency virus 1, HeLa-CD4/CCR5, read-out: EC50 Group from TABLE 1, HeLa CD4 CCR5 cells, single-round infectious luciferase reporter virus. How it is done:
• Virus production—Human embryonic Kidney cell line, 293, propagated in Dulbecco's Modified Eagle Medium (Life Technologies, Gaithersburg, Md.) containing 10% fetal Bovine serum (FBS, Sigma, St. Louis, Mo.). • Virus infection—Human epithelial cell line, HeLa, expressing the HIV-1 receptors CD4 and CCR^5 was propagated in Dulbecco's Modified Eagle Medium (Life Technologies, Gaithersburg, Md.) containing 10% fetal Bovine serum (FBS, Sigma, St. Louis, Mo.) and supplemented with 0.2 mg/mL Geneticin (Life Technologies, Gaithersburg, Md.) and 0.4 mg/mL Zeocin (Invitrogen, Carlsbad, Calif.). […] Transfections were performed using lipofectAMINE PLUS reagent as described by the manufacturer (Life Technologies, Gaithersburg, Md.). Experiment • 1. Compound was added to HeLa CD4 CCR5 cells plated in 96 well plates at a cell density of 5×10^4 cells per well in 100 μl Dulbecco's Modified Eagle Medium containing 10% fetal Bovine serum at a concentration of […]. • 2. 100 μl of single-round infectious reporter virus in Dulbecco's Modified Eagle Medium was then added to the plated cells and compound at an approximate multiplicity of infection (MOI) of 0.01, resulting in a final volume of 200 μl per well and a final compound concentration of <10 μM. • 3. Samples were harvested 72 h after infection. • 4. Viral infection was monitored by measuring luciferase expression from viral DNA in the infected cells using a luciferase reporter gene assay kit (Roche Molecular Biochemicals, Indianapolis, Ind.). Infected cell supernatants were removed and 50 μl of Dulbecco's Modified Eagle Medium (without phenol red) and 50 μl of luciferase assay reagent reconstituted as described by the manufacturer (Roche Molecular Biochemicals, Indianapolis, Ind.) was added per well. Luciferase activity was then quantified by measuring luminescence using a Wallac microbeta scintillation counter. • 5. […] An EC50 provides a method for comparing the antiviral potency of the compounds of this invention. The effective concentration for fifty percent inhibition (EC50) was calculated with the Microsoft Excel Xlfit curve fitting software. For each compound, curves were generated from percent inhibition calculated at 10 different concentrations by using a four paramenter logistic model (model 205). Table 1 is the key for the data in Tables 2-4. Cytoxicity assays were conducted with the same HeLa using methodology well known in the art.
In Table 5, X2, X4 etc. indicates the point of attachment. […] The data at 10 μM was calculated in the following manner:
For compounds tested at concentrations less than 10 μM, the percent inhibition at 10 μM was determined by extrapolation using the XLfit curve fitting feature of the Microsoft Excel spreadsheet software. Curves were obtained from 10 data points (% inhibition determined at 10 concentrations of compound) by using a four parameter logistic model (XLfit model 205: y=A+((B−A)/(I+((C/x)^D))), where, A=minimum y, B=maximum y, C=logEC50, D=slope factor, and x and y are known data values. Extrapolations were performed with the A and B parameters unlocked. […]
For orientation: EC50 means the concentration giving half of the maximal effect. Consider `O=C(C(=O)N1CCN(C(=O)c2ccc(Br)o2)CC1)c1c[nH]c2c(-c3ncon3)ncc(F)c12` [Example 167], for which the concentration giving a half-maximal response (EC50) is < 1000 nM.

In the case of `CCN(CC)CCN(C)c1cnc(-c2ncc(OC)c3c(C(=O)C(=O)N4CCN(C(=O)c5ccccc5)CC4)c[nH]c23)cn1` [Example 175, 1-benzoyl-4-[(4-methoxy-7-(2-(N-diethylaminoethyl-N-methyl)aminopyrazin-S-yl)-6-azaindol-3-yl)-oxoacetyl]piperazine], the EC50 was < 1000 nM.

Take `COc1cnc(-c2cccnc2)c2[nH]cc(C(=O)C(=O)N3CCN(C(=O)c4ccccc4)CC3)c12` [Example 25, 1-benzoyl-4-[(4-methoxy-7-(pyridin-3-yl)-6-azaindol-3-yl)-oxoacetyl]piperazine]: the EC50 is < 1000 nM.

As for `COc1cnc(-c2cnccn2)c2[nH]cc(C(=O)C(=O)N3CCN(C(=O)OC(C)(C)C)CC3)c12` [Precursor 5t], the EC50 is < 1000 nM.

Turning to `C[C@@H]1CN(C(=O)c2ccccn2)CCN1C(=O)C(=O)c1c[nH]c2c(-c3cncs3)nccc12` [Example 109, (R)-1-picolinoyl-3-methyl-4-[(7-(thiazol-5-yl)-6-azaindol-3-yl)-oxoacetyl]piperazine], the EC50 is < 1000 nM.

Regarding `COc1cnc(-c2ccc(C=O)o2)c2[nH]cc(C(=O)C(=O)N3CCN(C(=O)c4ccccc4)CC3)c12` [Example 85, 1-(benzoyl)-4-[(4-methoxy-7-(5-carbonyl-furan-2-yl)-6-azaindol-3-yl)-oxoacetyl]piperazine], the EC50 is < 1000 nM.

Turning to `COc1cnc(-c2cnccn2)c2[nH]cc(C(=O)C(=O)N3CCN(C(=O)c4nc(N)n[nH]4)CC3)c12` [Example 198], the EC50 is < 1000 nM.

For the compound `COc1cnc(-c2cnc(SC)s2)c2[nH]cc(C(=O)C(=O)N3CCN(C(=O)c4ccccc4)CC3)c12` [Example 93, 1-benzoyl-4-[(4-methoxy-7-(2-methylthio-thiazol-5-yl)-6-azaindol-3-yl)-oxoacetyl]piperazine], the EC50 was < 1000 nM.

With `COc1cnc(-c2cnccn2)c2[nH]cc(C(=O)C(=O)N3CCN(C(=O)c4cccc(C)n4)CC3)c12` [Example 201], the EC50 is < 1000 nM.

Turning to `COc1cnc(-n2ccc(CCCC#N)n2)c2[nH]cc(C(=O)C(=O)N3CCN(C(=O)c4ccccc4)CC3)c12` [Example 279, 1-benzoyl-4-[(4-methoxy-7-(3-(3-cyano-propan-1-yl)-pyrazol-1-yl)-6-azaindol-3-yl)-oxoacetyl]piperazine], the EC50 was < 1000 nM.

With `COc1cnc(-c2nc(-c3csc(C)n3)n[nH]2)c2[nH]cc(C(=O)C(=O)N3CCN(C(=O)c4ccccc4)[C@H](C)C3)c12` [Example 341], the EC50 was < 1000 nM.

Turning to `COc1cnc(-c2cnc(NS(C)(=O)=O)cn2)c2[nH]cc(C(=O)C(=O)N3CCN(C(=O)c4ccccc4)CC3)c12` [Example 47], the EC50 was < 1000 nM.

Take `C[C@@H]1CN(C(=O)c2ccccc2)CCN1C(=O)C(=O)c1c[nH]c2c(-c3ccc(C(=O)O)cc3)nccc12` [Example 164]: the EC50 was < 1000 nM.

Take `C[C@@H]1CN(C(=O)c2ccccc2)CCN1C(=O)C(=O)c1c[nH]c2c(-c3cncnc3)ncc(F)c12` [Example 41, 1-benzoyl-3-(R)-methyl-4-[(4-fluoro-7-(pyrimidin-5-yl)-6-azaindol-3-yl)-oxoacetyl]piperazine]: the EC50 was < 1000 nM.

Regarding `C[C@@H]1CN(C(=O)c2ccccc2)CCN1C(=O)C(=O)c1c[nH]c2c(-c3cnc(O)cn3)nccc12` [Example 157], the EC50 was < 1000 nM.

With `CCNc1cnc(-c2ncc(OC)c3c(C(=O)C(=O)N4CCN(C(=O)c5ccccn5)CC4)c[nH]c23)cn1` [Example 179, 1-picolinoyl-4-[(4-methoxy-7-(2-ethylaminopyrazin-5-yl)-6-azaindol-3-yl)-oxoacetyl]piperazine], the EC50 is < 1000 nM.

For `COc1cnc(-n2ccc(S(=O)(=O)c3ccc(C)cc3)n2)c2[nH]cc(C(=O)C(=O)N3CCN(C(=O)c4ccccc4)CC3)c12` [Example 286, 1-benzoyl-4-[(4-methoxy-7-(3-(toluene-4-sulfonyl)-pyrazol-1-yl)-6-azaindol-3-yl)-oxoacetyl]piperazine], the concentration for a half-maximal effect (EC50) is < 1000 nM.

Regarding `COc1cnc(-c2cnc3ccccc3n2)c2[nH]cc(C(=O)C(=O)N3CCN(C(=O)c4ccccn4)CC3)c12` [Example 186, 1-picolinoyl-4-[(4-methoxy-7-(quinoxakin-2-yl)-6-azaindol-3-yl)-oxoacetyl]piperazine], the EC50 was < 1000 nM.

As for `COC(=O)c1ccc(-c2ccn(-c3ncc(OC)c4c(C(=O)C(=O)N5CCN(C(=O)c6ccccc6)CC5)c[nH]c34)n2)cc1` [Example 293, 1-benzoyl-4-[(4-methoxy-7-(3-(4-methoxycarbonylphenyl)-pyrazol-1-yl)-6-azaindol-3-yl)-oxoacetyl]piperazine], the EC50 was < 1000 nM.

For `O=C(C(=O)N1CCN(C(=O)c2ccccc2)CC1)c1c[nH]c2c(-c3cncnc3)nccc12` [Example 17, 1-benzoyl-4-[(7-(pyrimidin-5-yl)-6-azaindol-3-yl)-oxoacetyl]piperazine], the EC50 is < 1000 nM.

With `COc1cnc(Nc2ccccn2)c2[nH]cc(C(=O)C(=O)N3CCN(C(=O)c4ccccc4)CC3)c12` [Example 330], the EC50 is < 1000 nM.

Take `CCc1ncc(-c2ncc(OC)c3c(C(=O)C(=O)N4CCN(C(=O)c5ccccc5)CC4)c[nH]c23)s1` [Example 88, 1-benzoyl-4-[(4-methoxy-7-(2-ethyl-thiazol-5-yl)-6-azaindol-3-yl)-oxoacetyl]piperazine]: the EC50 is < 1000 nM.

The same assay, now with this note: Human immunodeficiency virus 1, HeLa-CD4/CCR5, read-out: EC50 Group from Table 1, Table 2-1; HeLa CD4 CCR5 cells, single-round luciferase reporter virus.
Consider `COc1cnc(-c2nc(-c3cccc(Cl)c3)n[nH]2)c2[nH]cc(C(=O)C(=O)N3CCN(C(=O)c4ccccc4)[C@H](C)C3)c12` [Example 339], for which the EC50 was < 1000 nM.

Take `COc1cnc(-c2nc(-c3csc(C)n3)n[nH]2)c2[nH]cc(C(=O)C(=O)N3CCN(C(=O)c4ccccc4)[C@H](C)C3)c12` [Example 341]: the EC50 is < 1000 nM.

On to `COc1cnc(-n2nccc2N)c2[nH]cc(C(=O)C(=O)N3CCN(C(=O)c4ccccc4)[C@H](C)C3)c12` [Example 254, (R)-1-benzoyl-2-methyl-4-[(4-methoxy-7-(5-amino-pyrazol-1-yl)-6-azaindol-3-yl)-oxoacetyl]piperazine], for which the EC50 was < 1000 nM.

For `COc1cnc(-c2nc(-c3cccnc3)n[nH]2)c2[nH]cc(C(=O)C(=O)N3CCN(C(=O)c4ccccc4)[C@H](C)C3)c12` [Example 338], the EC50 is < 1000 nM.

The same assay, now with this note: Human immunodeficiency virus 1, HeLa-CD4/CCR5, read-out: EC50 Group from Table 1, Table 4; HeLa CD4 CCR5 cells, single-round luciferase reporter virus.
As for `Cc1c[nH]c(-c2cc(Cl)nc3c(C(=O)C(=O)N4CCN(C(=O)c5ccccc5)C[C@H]4C)c[nH]c23)n1` [Example 61, l-benzoyl-3-(R)-methyl-4-[(5-chloro-7-(4-methyl-imidazol-2-yl)-4-azaindol-3-yl)-oxoacetyl]piperazine], the EC50 was < 1000 nM.

For `Cc1noc(C)c1-c1ccnc2c(C(=O)C(=O)N3CCN(C(=O)c4ccccc4)C[C@H]3C)c[nH]c12` [Example 130], the EC50 was < 1000 nM.

Turning to `Cc1cc(-c2cc(Cl)nc3c(C(=O)C(=O)N4CCN(C(=O)c5ccccc5)C[C@H]4C)c[nH]c23)[nH]n1` [Example 64, 1-benzoyl-3-(R)-methyl-4-[(5-chloro-7-(3-methyl-pyrazol-5-yl)-4-azaindol-3-yl)-oxoacetyl]piperazine], the EC50 was < 1000 nM.

`C[C@@H]1CN(C(=O)c2ccccc2)CCN1C(=O)C(=O)c1c[nH]c2c(-c3cccs3)ccnc12` [Example 128]: the EC50 was < 1000 nM.
